≈ marks a conversion by molar mass, not a printed value.
How the values were obtained:
[1] = Cytotoxicity in tissue culture (HeLa monolayers); format: cell-based; conditions: human; HeLa cells; observed at 48 and 72 hours post-treatment; read-out: Cytotoxicity (concentration of the compound found to be toxic to the cell)
[2] = test system: rhinovirus type 1A (RV-1A); test: Tissue culture antiviral testing, RV-1A (cytopathic effect, HeLa cells); format: cell-based; conditions: Enterovirus, HeLa cells, NA = not active at the standard test conditions, read-out: Lowest concentration of the compound necessary to cause a 50 percent reduction in cytopathic effect
rhinovirus type 2 (RV-2) = test: Tissue culture antiviral testing, RV-2 (cytopathic effect, HeLa cells); format: cell-based; conditions: Enterovirus, HeLa cells, NA = not active at the standard test conditions, read-out: Lowest concentration of the compound necessary to cause a 50 percent reduction in cytopathic effect
[3] = test system: Coxsackie A21 virus (Cox A21); test: Tissue culture antiviral testing, Cox A21 (cytopathic effect, HeLa cells); format: cell-based; conditions: HeLa cells, NA = not active at the standard test conditions, read-out: Lowest concentration of the compound necessary to cause a 50 percent reduction in cytopathic effect
rhinovirus type 5 (RV-5) = test: Tissue culture antiviral testing, RV-5 (cytopathic effect, HeLa cells); format: cell-based; conditions: Enterovirus, HeLa cells, read-out: Lowest concentration of the compound necessary to cause a 50 percent reduction in cytopathic effect
rhinovirus type 8 (RV-8) = test: Tissue culture antiviral testing, RV-8 (cytopathic effect, HeLa cells); format: cell-based; conditions: Enterovirus, HeLa cells, read-out: Lowest concentration of the compound necessary to cause a 50 percent reduction in cytopathic effect
Cox A21 = test: Single Oral Dose test in mice challenged with Cox A21; format: in vivo, Swiss male mice; conditions: for X^2 (Single Oral Dose, chi-square of deaths vs virus control): 600 mg/kg, 3 h
Coxsackie A21 virus = test: Continuous Oral Feeding test in mice challenged with Coxsackie A21; format: in vivo; conditions: for X^2 (Continuous Oral Feeding, chi-square of deaths): 0.06 % in diet, 240 h, 0.06 % strength
[4] = test system: rhinovirus type 64 (RV-64); test: Tissue culture antiviral testing, RV-64 (cytopathic effect, HeLa cells); format: cell-based; conditions: Enterovirus, HeLa cells, NA = not active at the standard test conditions, read-out: Lowest concentration of the compound necessary to cause a 50 percent reduction in cytopathic effect
[5] = test system: Hank's (untyped) rhinovirus; test: Inhibition of multiplication, WI-38 cell culture tubes; format: cell-based; conditions: Enterovirus, 25 μg/ml, read-out: inhibition grade
rhinovirus type 4 = test: as above; format: cell-based; conditions: Enterovirus, 25 μg/ml, read-out: inhibition grade
rhinovirus type 6 = test: as above; format: cell-based; conditions: Enterovirus, 25 μg/ml, read-out: inhibition grade
rhinovirus type 8 = test: as above; format: cell-based; conditions: Enterovirus, 25 μg/ml, read-out: inhibition grade
rhinovirus type 10 = test: as above; format: cell-based; conditions: Enterovirus, 25 μg/ml, read-out: inhibition grade
rhinovirus type 13 = test: as above; format: cell-based; conditions: Enterovirus, 25 μg/ml, read-out: inhibition grade
rhinovirus type 17 = test: as above; format: cell-based; conditions: Enterovirus, 25 μg/ml, read-out: inhibition grade
rhinovirus type 19 = test: as above; format: cell-based; conditions: Enterovirus, 25 μg/ml, read-out: inhibition grade
rhinovirus type 21 = test: as above; format: cell-based; conditions: Enterovirus, 25 μg/ml, read-out: inhibition grade
rhinovirus type 29 = test: as above; format: cell-based; conditions: Enterovirus, 25 μg/ml, read-out: inhibition grade
rhinovirus type 39 = test: as above; format: cell-based; conditions: Enterovirus, 25 μg/ml, read-out: inhibition grade
rhinovirus type 56 = test: as above; format: cell-based; conditions: Enterovirus, 25 μg/ml, read-out: inhibition grade
rhinovirus type 58 = test: as above; format: cell-based; conditions: Enterovirus, 25 μg/ml, read-out: inhibition grade
rhinovirus type 59 = test: as above; format: cell-based; conditions: Enterovirus, 25 μg/ml, read-out: inhibition grade
rhinovirus type 60 = test: as above; format: cell-based; conditions: Enterovirus, 25 μg/ml, read-out: inhibition grade
rhinovirus type 64 = test: as above; format: cell-based; conditions: Enterovirus, 25 μg/ml, read-out: inhibition grade
rhinovirus type 68 = test: as above; format: cell-based; conditions: Enterovirus, 25 μg/ml, read-out: inhibition grade
rhinovirus type 74 = test: as above; format: cell-based; conditions: Enterovirus, 25 μg/ml, read-out: inhibition grade
rhinovirus type 75 = test: as above; format: cell-based; conditions: Enterovirus, 25 μg/ml, read-out: inhibition grade
rhinovirus type 81 = test: as above; format: cell-based; conditions: Enterovirus, 25 μg/ml, read-out: inhibition grade
Coxsackie B2 = format: cell-based; conditions: enterovirus Coxsackie B2
Coxsackie B4 = format: cell-based; conditions: enterovirus Coxsackie B4
influenza A = format: cell-based; conditions: at the test concentrations
influenza WSN = test: Further tissue culture testing; format: cell-based; conditions: at the test concentrations
influenze PR 8 = format: cell-based; conditions: at the test concentrations
parainfluenza 1 = format: cell-based; conditions: at the test concentrations
[6] = test system: parainfluenza NDV (Newcastle's disease virus); format: cell-based; conditions: at the test concentrations
adenovirus (untyped) = format: cell-based; conditions: at the test concentrations
[7] = test system: Herpes simplex virus type 1; format: cell-based; conditions: at the test concentrations
[8] = test system: feline calici virus, unconfirmed; format: cell-based; conditions: at the test concentrations
Acute toxicity in rats = conditions: rat, in vivo
[9] = Acute oral toxicity in beagle dogs; conditions: dog, in vivo
Excerpt: Testing in beagle dogs indicated an acute oral toxicity of greater than 2 grams/kg.

Picornaviruses = test: Antiviral activity against picornaviruses, overall (tissue culture and animal testing)
Experimental: Monolayered HeLa cells in 16 millimeter (mm) tissue culture dishes were treated with 1 ml of culture medium (Eagles medium supplemented with fetal calf serum) containing subject compound at an appropriate concentration or containing no compound at all. Culture mediums such as those described herein are more fully described in standard texts, as for example, Kuchler's Biochemical Methods in Cell Culture and Virology, Dowden, Hutchinson and Ross, Inc., Stroudsberg, Pa. (1977). Following treatment, cells were challenged with 0.05 ml of rhinovirus type 1A (RV-1A), rhinovirus type 2 (RV-2) or Coxsackie A21 virus (Cox A21) in culture medium. Some of the compounds were also tested against rhinovirus type 5 (RV-5), rhinovirus type 8 (RV-8) or rhinovirus type 64 (RV-64). Cell controls received no viruses.
In addition, some of the compounds were tested in animals utilizing the following procedure, hereinafter referred to as the "Single Oral Dose" test. […] Mice were observed daily for 7-10 days post-challenge and deaths recorded. […]
Some of the compounds were also tested in animals utilizing the following procedure, hereinafter referred to as the "Continuous Oral Feeding" test. […] Deaths in both control and experimental groups were recorded for the 10 days and the results analyzed by a chi-square test. […]

N#Cc1cc([N+](=O)[O-])ccc1Oc1ccc(Cl)cc1Cl [Example 2, 2-(2,4-Dichlorophenoxy)-5-nitrobenzonitrile]
MCC [1]: > 100 µg/mL | EC50 [2]: 0.625 µg/mL (≈ 2.02 µM) | EC50 (rhinovirus type 2 (RV-2)): 0.625 µg/mL (≈ 2.02 µM) | EC50 [3]: 1.25 µg/mL (≈ 4.04 µM) | EC50 (rhinovirus type 5 (RV-5)): 2.5 µg/mL (≈ 8.09 µM) | EC50 (rhinovirus type 8 (RV-8)): 2.5 µg/mL (≈ 8.09 µM) | X^2 (Single Oral Dose, chi-square of deaths vs virus control) (Cox A21): 3.659 | X^2 (Continuous Oral Feeding, chi-square of deaths) (Coxsackie A21 virus): 1.38

N#Cc1cc([N+](=O)[O-])ccc1Oc1ccc(Cl)cc1 [Example 4, 2-(4-Chlorophenoxy)-5-nitrobenzonitrile]
MCC [1]: > 100 µg/mL | EC50 [2]: ≤ 0.625 µg/mL | EC50 (rhinovirus type 2 (RV-2)): ≤ 0.625 µg/mL | EC50 [3]: 0.625 µg/mL (≈ 2.28 µM) | EC50 (rhinovirus type 5 (RV-5)): < 0.3 µg/mL | EC50 (rhinovirus type 8 (RV-8)): < 6 µg/mL | X^2 (Single Oral Dose, chi-square of deaths vs virus control) (Cox A21): 0.252 | X^2 (Continuous Oral Feeding, chi-square of deaths) (Coxsackie A21 virus): 10.61

N#Cc1cc([N+](=O)[O-])ccc1Oc1ccc(Cl)c(Cl)c1 [Example 1, 2-(3,4-Dichlorophenoxy)-5-nitrobenzonitrile]
MCC [1]: > 100 µg/mL | EC50 [2]: 0.5 µg/mL (≈ 1.62 µM) | EC50 (rhinovirus type 2 (RV-2)): 0.25 µg/mL (≈ 0.809 µM) | EC50 [3]: 0.25 µg/mL (≈ 0.809 µM) | EC50 (rhinovirus type 5 (RV-5)): 0.5 µg/mL (≈ 1.62 µM) | EC50 (rhinovirus type 8 (RV-8)): 0.25 µg/mL (≈ 0.809 µM) | EC50 [4]: 0.156 µg/mL (≈ 0.505 µM) | antiviral activity in the "Single Oral Dose" test (Cox A21; in words, 95% confidence level): exhibited antiviral activity | X^2 (Single Oral Dose, chi-square of deaths vs virus control) (Cox A21): 5.36 | antiviral activity in the "Continuous Oral Feeding" test (Coxsackie A21 virus; in words, 95% confidence level): exhibited antiviral activity | X^2 (Continuous Oral Feeding, chi-square of deaths) (Coxsackie A21 virus): 23.62 | inhibition at 25 µg/mL [5]: ≥ 75% | inhibition at 25 µg/mL (rhinovirus type 4): ≥ 75% | inhibition at 25 µg/mL (rhinovirus type 6): ≥ 75% | inhibition at 25 µg/mL (rhinovirus type 8): ≥ 75% | inhibition at 25 µg/mL (rhinovirus type 10): ≥ 75% | inhibition at 25 µg/mL (rhinovirus type 13): ≥ 75% | inhibition at 25 µg/mL (rhinovirus type 17): ≥ 75% | inhibition at 25 µg/mL (rhinovirus type 19): ≥ 75% | inhibition at 25 µg/mL (rhinovirus type 21): ≥ 75% | inhibition at 25 µg/mL (rhinovirus type 29): ≥ 75% | inhibition at 25 µg/mL (rhinovirus type 39): ≥ 75% | inhibition at 25 µg/mL (rhinovirus type 56): ≥ 75% | inhibition at 25 µg/mL (rhinovirus type 58): ≥ 75% | inhibition at 25 µg/mL (rhinovirus type 59): ≥ 75% | inhibition at 25 µg/mL (rhinovirus type 60): ≥ 75% | inhibition at 25 µg/mL (rhinovirus type 64): ≥ 75% | inhibition at 25 µg/mL (rhinovirus type 68): ≥ 75% | inhibition at 25 µg/mL (rhinovirus type 74): ≥ 75% | inhibition at 25 µg/mL (rhinovirus type 75): ≥ 75% | inhibition at 25 µg/mL (rhinovirus type 81): ≥ 75% | inhibitory activity (Coxsackie B2): displayed inhibitory activity | inhibitory activity (Coxsackie B4): displayed inhibitory activity | effect on virus multiplication (influenza A): did not affect the multiplication | effect on virus multiplication (influenza WSN): did not affect the multiplication | effect on virus multiplication (influenze PR 8): did not affect the multiplication | effect on virus multiplication (parainfluenza 1): did not affect the multiplication | effect on virus multiplication [6]: did not affect the multiplication | effect on virus multiplication (adenovirus (untyped)): did not affect the multiplication | effect on virus multiplication [7]: did not affect the multiplication | effect on virus multiplication [8]: did not affect the multiplication | LD50 (Acute toxicity in rats; ip, intraperitoneal, read-out: acute toxicity, intraperitoneal administration): > 2000 mg/kg | LD50 (Acute toxicity in rats; oral, read-out: acute oral toxicity): ~5000 mg/kg | LD50 [9]: > 2000 mg/kg | effectiveness against picornaviruses (Picornaviruses; general statement): particularly effective against Picornaviruses | antiviral activity compared with 5-(3,4-dichlorophenoxy)-2-nitrobenzonitrile (Picornaviruses; standard tissue culture and animal testing): markedly greater antiviral activity

Reference: US4332820A, “Substituted benzonitriles having antiviral activity” (The Dow Chemical Company, priority 1980, dated 1982)
